From ChEMBL document CHEMBL1201862, “PubChem BioAssay data set” (2004)
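Protocol summary: plate cells (96-well), add compound at 5 concentrations, incubate 48 h, interpolate endpoints linearly. GI50 marks 50% less growth.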 Calls of active or inactive are those of the source. Rule as the data show it: active = GI50 up to about 1.1 µM and inactive = higher.

Tests used:
Assay in all cases: DTP human tumour cell line panel, 48 h
SK-MEL-28 = tested on: SK-MEL-28
OVCAR-8 = tested on: OVCAR-8
TK-10 = tested on: TK-10
EKVX = tested on: EKVX
LOX IMVI = tested on: LOX IMVI
HCT-15 = tested on: HCT-15
SK-OV-3 = tested on: SK-OV-3
KM12 = tested on: KM12
RPMI-8226 = tested on: RPMI-8226
NCI-H23 = tested on: NCI-H23
ACHN = tested on: ACHN
SK-MEL-5 = tested on: SK-MEL-5
786-0 = tested on: 786-0
SNB-19 = tested on: SNB-19
U-251 = tested on: U-251
SK-MEL-2 = tested on: SK-MEL-2
MDA-N = tested on: MDA-N
SR = tested on: SR
HCT-116 = tested on: HCT-116
SF-539 = tested on: SF-539

## CN(Cc1cnc2nc(N)nc(N)c2n1)c1ccc(C(=O)NC(CCC(=O)O)C(=O)O)c2ccccc12 (stereo not given)
SK-MEL-28
  GI50: 80.5 nM (active)
OVCAR-8
  GI50: 3.78 nM (active)
TK-10
  GI50: 45.8 nM (active)
EKVX
  GI50: < 100 nM (active)
LOX IMVI
  GI50: 0.508 nM (active)
HCT-15
  GI50: 1.86 nM
SK-OV-3
  GI50: 45.6 nM (active)
KM12
  GI50: 2.56 nM (active)
RPMI-8226
  GI50: 7.64 nM (active)
NCI-H23
  GI50: 7.73 nM (active)
ACHN
  GI50: 4.41 nM (active)
SK-MEL-5
  GI50: 10.7 nM (active)
786-0
  GI50: 3.03 nM (active)
SNB-19
  GI50: 61.2 nM (active)
U-251
  GI50: 11.4 nM (active)
SK-MEL-2
  GI50: < 100 nM (active)
MDA-N
  GI50: 0.834 nM (active)
SR
  GI50: 2.5 nM (active)
HCT-116
  GI50: 0.647 nM (active)
SF-539
  GI50: 5.77 nM (active)

## CS(=O)(=O)C(=Cc1ccccc1Cl)S(C)(=O)=O
SK-MEL-28
  GI50: > 100000 nM (inactive)
OVCAR-8
  GI50: > 100000 nM (inactive)
TK-10
  GI50: > 100000 nM (inactive)
EKVX
  GI50: > 100000 nM (inactive)
LOX IMVI
  GI50: > 100000 nM (inactive)
HCT-15
  GI50: > 100000 nM
SK-OV-3
  GI50: > 100000 nM (inactive)
KM12
  GI50: > 46500 nM (inactive)
RPMI-8226
  GI50: > 100000 nM (inactive)
NCI-H23
  GI50: > 100000 nM (inactive)
ACHN
  GI50: > 100000 nM (inactive)
SK-MEL-5
  GI50: > 92000 nM (inactive)
786-0
  GI50: > 100000 nM (inactive)
SNB-19
  GI50: > 100000 nM (inactive)
U-251
  GI50: > 100000 nM (inactive)
SK-MEL-2
  GI50: > 100000 nM (inactive)
MDA-N
  GI50: > 46500 nM (inactive)
SR
  GI50: > 100000 nM (inactive)
HCT-116
  GI50: 31100 nM (inactive)
SF-539
  GI50: > 100000 nM (inactive)

## C=CCc1c(Cl)nc(Cl)nc1Cl
SK-MEL-28
  GI50: 431 nM (active)
OVCAR-8
  GI50: 274 nM (active)
TK-10
  GI50: 1080 nM (active)
EKVX
  GI50: 1020 nM (active)
LOX IMVI
  GI50: < 11.5 nM (active)
HCT-15
  GI50: 87.3 nM
SK-OV-3
  GI50: 1320 nM (inactive)
KM12
  GI50: 439 nM (active)
RPMI-8226
  GI50: 301 nM (active)
NCI-H23
  GI50: 422 nM (active)
ACHN
  GI50: 346 nM (active)
SK-MEL-5
  GI50: 81.8 nM (active)
786-0
  GI50: 91.8 nM (active)
SNB-19
  GI50: 859 nM (active)
U-251
  GI50: 578 nM (active)
SK-MEL-2
  GI50: 478 nM (active)
MDA-N
  GI50: 30.8 nM (active)
SR
  GI50: < 10 nM (active)
HCT-116
  GI50: 352 nM (active)
SF-539
  GI50: 1040 nM (active)

## O=C(O)c1ccc(Nc2cnc3ccc(C(F)(F)F)cc3n2)cc1
SK-MEL-28
  GI50: 34000 nM (inactive)
OVCAR-8
  GI50: 17100 nM (inactive)
TK-10
  GI50: 13600 nM (inactive)
EKVX
  GI50: 38200 nM (inactive)
LOX IMVI
  GI50: 12100 nM (inactive)
HCT-15
  GI50: 18700 nM
SK-OV-3
  GI50: 33500 nM (inactive)
KM12
  GI50: 16500 nM (inactive)
RPMI-8226
  GI50: 18100 nM (inactive)
NCI-H23
  GI50: 17000 nM (inactive)
ACHN
  GI50: 18000 nM (inactive)
SK-MEL-5
  GI50: 16900 nM (inactive)
786-0
  GI50: 38900 nM (inactive)
SNB-19
  GI50: 18800 nM (inactive)
U-251
  GI50: 24700 nM (inactive)
SK-MEL-2
  GI50: 13200 nM (inactive)
MDA-N
  GI50: 17000 nM (inactive)
SR
  GI50: 20400 nM (inactive)
HCT-116
  GI50: 20100 nM (inactive)
SF-539
  GI50: 23900 nM (inactive)
